Assay results: ChEMBL document CHEMBL1146323, “Design, synthesis, and evaluation of efflux substrate-metal chelator conjugates as potential antimicrobial agents” (2007)
In brackets after ≈: the same amount, converted by molar mass. Activity calls are given as the source filed them. The calls are words filed in the database; no cut-off is given here.

Legend:
Escherichia coli [1] = experiment: Antimicrobial activity against Escherichia coli MC4100; format: functional
Bacillus subtilis = experiment: Antimicrobial activity against Bacillus subtilis; format: functional
Escherichia coli [2] = experiment: Antimicrobial activity against Escherichia coli MC4100 assessed as inhibition zone at >2 mg/mL; format: functional, organism-based

Compound | MIC (Escherichia coli [1]) | MIC (Bacillus subtilis) | Activity (Escherichia coli [2])
O=C(CN1c2ccccc2Sc2ccccc21)NCc1ccc(CN2CCCNCCNCCCNCC2)cc1 | 2000 µg/mL (≈ 3580 µM) | 7.8 µg/mL (≈ 14 µM) | –
c1ccc2c(c1)Nc1ccccc1S2 [PHENOTHIAZINE] | – | 500 µg/mL (≈ 2510 µM) | –
O=C(CCCCCN1c2ccccc2Sc2ccccc21)OCc1ccc(-c2cc(-c3ccccn3)nc(-c3ccccn3)c2)cc1 | – | 500 µg/mL (≈ 788 µM) | inactive
O=C(CCN1c2ccccc2Sc2ccc(C(F)(F)F)cc21)NCc1ccc(CN2CCOCCOCCOCCOCC2)cc1 | – | 500 µg/mL (≈ 758 µM) | inactive
O=C(CCCCCN1c2ccccc2Sc2ccccc21)NCc1ccc(CN2CCOCCOCCOCCOCC2)cc1 | – | 60 µg/mL (≈ 94.7 µM) | inactive
NC[C@H]1O[C@H](O[C@H]2[C@H](O)[C@@H](O[C@H]3O[C@H](CO)[C@@H](O)[C@H](N)[C@H]3O)[C@H](N)C[C@@H]2N)[C@H](O)[C@@H](O)[C@@H]1O [KANAMYCIN] | – | < 3 µg/mL | –
O=C(CCN1c2ccccc2Sc2ccc(C(F)(F)F)cc21)NCc1ccc(CN(Cc2ccccn2)Cc2ccccn2)cc1 | – | 16 µg/mL (≈ 25 µM) | inactive
O=C(CCCCCN1c2ccccc2Sc2ccccc21)NCc1ccc(CN(Cc2ccccn2)Cc2ccccn2)cc1 | – | 7.8 µg/mL (≈ 12.7 µM) | inactive
O=C(CCN1c2ccccc2Sc2ccccc21)NCc1ccc(CN(Cc2ccccn2)Cc2ccccn2)cc1 | – | 30 µg/mL (≈ 52.5 µM) | inactive
CC1(C)S[C@@H]2[C@H](NC(=O)[C@H](N)c3ccccc3)C(=O)N2[C@H]1C(=O)O [AMPICILLIN] | – | 25 µg/mL (≈ 71.5 µM) | –
O=C(CCN1c2ccccc2Sc2ccccc21)OCc1ccc(-c2cc(-c3ccccn3)nc(-c3ccccn3)c2)cc1 | – | – | inactive
O=C(CCN1c2ccccc2Sc2ccccc21)NCc1ccc(CN2CCOCCOCCOCCOCC2)cc1 | – | 2000 µg/mL (≈ 3380 µM) | inactive
